Test results: patent publication US6548486B1, “Fatty acid esters of nucleoside analogs” (Norsk Hydro a.s., priority 1991, dated 2003)

Assays:
[1] = system: HSV 2 (3rd passage of a clinical isolate); assay: Plaque method: tissue culture of HSV 2 in vero cells; assay type: cell-based; settings: Ara T esters at 3.9 μmol/l, FIG. 2
[2] = system: HSV 2 strain relatively resistent to ACV; assay: Plaque method with a HSV 2 strain relatively resistent to ACV; assay type: cell-based; settings: 0.9 μmol/l versus 2.2 μmol/l, FIG. 1B
Experimental: A virus preparation of HSV 2 (3rd passage of a clinical isolate) is diluted to 3×10^3 pfu/well, and thereafter inocculated on cells and incubated for 1 hour in a tissue culture of vero cells. At that time the virus is incorporated into the cells.
These cells are then cultivated for 24 hours with an anti-viral agent. Thereafter they are placed under freezing conditions, which lead to the disruption of the cells and free virus appear under the melting process. Dilutions of either 1/100 or 1/10000 are prepared and added to fresh tissue cultures. Incubation for 1 hour leads to incorporation of virus in the cells. Carboxymethylcellulose (CMC) is added in order to prohibit the migration of virus between the cells through the medium. Spread of virus by cell contact is still effective in causing the formation of plaques.
One plaque will represent one infectious virus. Thus the counting of plaques gives a precise quantitation of the number of infectious virus.
In a test done with a HSV 2 strain relatively resistent to ACV, the test compounds, ACV, ACV-oleate and ACV-elaidate, were added at 0.9 μmol/l or 2.2 μmol/l.

Herpes virus 2 = assay: In vivo reduced mortality, Herpes Simplex Virus 2 infected mice; design: species or system female NMRI mice
From the text: The in vivo experiments were done using 3-4 weeks old female NMRI mice. This strain of mice is sensitive to the human herpes virus, up to an age of about 6 weeks, where after they become relatively resistant. Mice below this critical age were used, having a weight of 13-17 grams.
Herpes virus 2 which were third passage isolates were inocculated on the left ear lobe by a standarized procedure. […] Thus HSV 2 is especially suitable as a system for evaluation of the therapeutic efficiency by counting the number of cases of encephalitis.
The animals received approximately 12 mg/kg body weight/day through the drinking water. The compounds were added to the drinking water formulated as micelles with deoxycholate.
Both the control group and the groups receiving the test compounds included 10 animals in each group. The test compounds were ACV-elaidate and ACV in comparison with the control. Treatment was started on day 3 from inocculation. At that time the infection is well established in the central nerve system.

| SMILES | inhibition [1] [%] | inhibitory effect at increasing concentration [2] | survival rate (Herpes virus 2; approximately 12 mg/kg body weight/day through the drinking water, treatment started day 3 from inocculation, FIG. 3) [%] | signs of encephalitis (Herpes virus 2; surviving animals after 21 days) |
| --- | --- | --- | --- | --- |
| CCCCCCCC/C=C\CCCCCCCC(=O)OC[C@H]1O[C@@H](n2cc(C)c(=O)[nH]c2=O)[C@@H](O)[C@@H]1O (relative stereo) [Ara T oleate, 5′-O-(cis-9″-Octadecenoyl)-1-β-D-Arabinofuranosyl-Thymine] | 100 |  |  |  |
| Nc1nc2c(ncn2COCCO)c(=O)[nH]1 [ACV, 9-(2-Hydroxyethoxymethyl)-Guanine, reference compound] |  | remains at the same level |  |  |
| CCCCCCCC/C=C/CCCCCCCC(=O)OCCOCn1cnc2c(=O)[nH]c(N)nc21 [ACV-elaidate, 9-(2′-(trans-9″-Octadecenoyloxy)ethoxymethyl)-Guanine] |  | strongly enhanced at the higher concentration | 40 | no signs of encephalitis |
| CCCCCCCC/C=C\CCCCCCCC(=O)OCCOCn1cnc2c(=O)[nH]c(N)nc21 [ACV-oleate, 9-(2′-(cis-9′-Octadecenoylcxy)ethoxymethyl)-Guanine] |  | strongly enhanced at the higher concentration |  |  |
